In patent publication US8629149B2, “Oxopiperazine derivatives for the treatment of pain and epilepsy” (Zalicus Pharmaceuticals Ltd., priority 2009, dated 2014):

Tests used:
[1] = molecular target: T1, Cav3.2 T-type Ca2+ channels expressed in HEK cells (Homo sapiens, UniProt O95180); assay: Cav3.2 voltage-clamp electrophysiological assay; format: cell-based; details: Cav3.2 in HEK cells
T1 construct: expressed in transfected cells; host or cells: HEK cells
Description: Prior to recording currents from Cav3.2 T-type Ca^2+ channels expressed in HEK cells, the culture media was replaced with extracellular solution (ECS) containing (in mM): 142 CsCl, 10 D-glucose, 2 CaCl2, 1 MgCl2, 10 HEPES, pH adjusted to 7.4 with CsOH. Borosilicate glass patch pipettes, pulled on a P-97 micropipette puller (Sutter Instruments, Novato, Calif.) with typical resistances of 2-4 MW, were backfilled with intracellular solution containing (in mM): 126.5 Cs-methanesulphonate, 2 MgCl2, 10 HEPES, 11 EGTA, 2 Na-ATP, pH adjusted to 7.3 CsOH. […] were recorded in the whole-cell configuration at room temperature (˜21° C.) using an Axopatch 200B (Molecular Devices, Sunnyvale, Calif.) patch-clamp amplifier. Recordings were low-pass filtered at 1 kHz (−3 dB 4-pole Bessel filter), digitized at 2 kHz with a Digidata 1322A interface (Molecular Devices), and acquired using pClamp 9.2 (Molecular Devices). No leak subtraction was used. Test compounds, prepared as 30 mM stock solutions in DMSO and diluted in extracellular buffer, were applied through a gravity driven multi-barrelled array of capillaries (24 gauge) connected to reservoirs controlled by solenoid valves. The effects of compounds on Cav3.2 slow and fast inactivation were evaluated using four different voltage protocols. The voltage dependence of fast and slow channel inactivation was examined using a two pulse protocol. Data were analyzed and fitted using OriginPro v.7.5 (OriginLab, Northampton, Mass.) software.

SNL L5/L6 rats = assay: L5/L6 spinal nerve ligation (SNL) Chung pain model, tactile allodynia (von Frey); format: in vivo, rat
Description: The Spinal Nerve Ligation is an animal model representing peripheral nerve injury generating a neuropathic pain syndrome. In this model experimental animals develop the clinical symptoms of tactile allodynia and hyperalgesia. L5/L6 Spinal nerve ligation (SNL) injury was induced using the procedure of Kim and Chung (Kim et al., Pain 50:355-363 (1992)) in male Sprague-Dawley rats (Harlan; Indianapolis, Ind.) weighing 200 to 250 grams.
Anaesthesia was induced with 2% isofluorane in O2 at 2 L/min and maintained with 0.5% isofluorane in O2. Rats were then shaved and aseptically prepared for surgeries. A 2 cm paraspinal incision was made at the level of L4-S2. L4/L5 was exposed by removing the transverse process above the nerves with a small rongeur. The L5 spinal nerve is the larger of the two visible nerves below the transverse process and lies closest to the spine. The L6 spinal nerve is located beneath the corner of the slope bone. A home-made glass Chung rod was used to hook L5 or L6 and a pre-made slip knot of 4.0 silk suture was placed on the tip of the rod just above the nerve and pulled underneath to allow for the tight ligation. The L5 and L6 spinal nerves were tightly ligated distal to the dorsal root ganglion. The incision was closed, and the animals were allowed to recover for 5 days.
Sham control rats underwent the same operation and handling as the experimental animals, but without SNL.
Prior to initiating drug delivery, baseline behavioural testing data is obtained. At selected times after infusion of the Test or Control Article behavioural data can then be collected again.
The assessment of tactile allodynia consisted of measuring the withdrawal threshold of the paw ipsilateral to the site of nerve injury in response to probing with a series of calibrated von Frey filaments (innocuous stimuli). Animals were acclimated to the suspended wire-mesh cages for 30 min before testing. Each von Frey filament was applied perpendicularly to the plantar surface of the ligated paw of rats for 5 sec. A positive response was indicated by a sharp withdrawal of the paw. For rats, the first testing filament is 4.31. Measurements were taken before and after administration of test articles. […] The protocol was repeated until three changes in behaviour were determined (“up and down” method) (Chaplan et al., J. Neurosci. Methods 53:55-63 (1994)). The 50% paw withdrawal threshold was determined as (10^[Xf+kδ])/10,000, where Xf=the value of the last von Frey filament employed, k=Dixon value for the positive/negative pattern, and δ=the logarithmic difference between stimuli. The cut-off values for rats were no less than 0.2 g and no higher than 15 g (5.18 filament); for mice no less than 0.03 g and no higher than 2.34 g (4.56 filament). A significant drop of the paw withdrawal threshold compared to the pre-treatment baseline is considered tactile allodynia.
Rat SNL tactile allodynia were tested for Compounds 1-4 and 9-12 at 60 minutes compared to baseline and post-SNL. […] FIG. 1 is a plot of the antiallodynic effects of compound 4 (i.p.) tested in SNL L5/L6 rats using von Frey at three different doses, namely 3, 10 and 30 mpk, compared to vehicle alone. […] Rat SNL tactile allodynia were tested at 1, 2 and 4 hours after drug treatment (Table 6).

male CF1 mice = assay: 6 Hz psychomotor seizure model of partial epilepsy; format: in vivo, mouse; parameters: Epilepsy 6 Hz (% Protected): concentration or dose not given beside the values
Procedure: Compounds were evaluated for the protection against seizures induced by a 6 Hz, 0.2 ms rectangular pulse width of 3 s duration, at a stimulus intensity of 32 mA (CC97) applied to the cornea of male CF1 mice (20-30 g) according to procedures described by Barton et al, “Pharmacological Characterization of the 6 Hz Psychomotor Seizure Model of Partial Epilepsy,” Epilepsy Res. 47(3):217-27 (2001). Seizures are characterised by the expression of one or more of the following behaviours: stun, forelimb clonus, twitching of the vibrissae and Straub-tail immediately following electrical stimulation.

mice = assay: Mouse rotarod assay; format: in vivo
Procedure: To assess a compound's undesirable side effects (toxicity), animals were monitored for overt signs of impaired neurological or muscular function. In mice, the rotarod procedure (Dunham and Miya, J. Am. Pharmacol. Assoc. 46:208-209 (1957)) is used to disclose minimal muscular or neurological impairment (MMI). When a mouse is placed on a rod that rotates at a speed of 6 rpm, the animal can maintain its equilibrium for long periods of time. The animal is considered toxic if it falls off this rotating rod three times during a […].

[2] = voltage-dependence of half inactivation

T1 sequence (O95180 whole entry): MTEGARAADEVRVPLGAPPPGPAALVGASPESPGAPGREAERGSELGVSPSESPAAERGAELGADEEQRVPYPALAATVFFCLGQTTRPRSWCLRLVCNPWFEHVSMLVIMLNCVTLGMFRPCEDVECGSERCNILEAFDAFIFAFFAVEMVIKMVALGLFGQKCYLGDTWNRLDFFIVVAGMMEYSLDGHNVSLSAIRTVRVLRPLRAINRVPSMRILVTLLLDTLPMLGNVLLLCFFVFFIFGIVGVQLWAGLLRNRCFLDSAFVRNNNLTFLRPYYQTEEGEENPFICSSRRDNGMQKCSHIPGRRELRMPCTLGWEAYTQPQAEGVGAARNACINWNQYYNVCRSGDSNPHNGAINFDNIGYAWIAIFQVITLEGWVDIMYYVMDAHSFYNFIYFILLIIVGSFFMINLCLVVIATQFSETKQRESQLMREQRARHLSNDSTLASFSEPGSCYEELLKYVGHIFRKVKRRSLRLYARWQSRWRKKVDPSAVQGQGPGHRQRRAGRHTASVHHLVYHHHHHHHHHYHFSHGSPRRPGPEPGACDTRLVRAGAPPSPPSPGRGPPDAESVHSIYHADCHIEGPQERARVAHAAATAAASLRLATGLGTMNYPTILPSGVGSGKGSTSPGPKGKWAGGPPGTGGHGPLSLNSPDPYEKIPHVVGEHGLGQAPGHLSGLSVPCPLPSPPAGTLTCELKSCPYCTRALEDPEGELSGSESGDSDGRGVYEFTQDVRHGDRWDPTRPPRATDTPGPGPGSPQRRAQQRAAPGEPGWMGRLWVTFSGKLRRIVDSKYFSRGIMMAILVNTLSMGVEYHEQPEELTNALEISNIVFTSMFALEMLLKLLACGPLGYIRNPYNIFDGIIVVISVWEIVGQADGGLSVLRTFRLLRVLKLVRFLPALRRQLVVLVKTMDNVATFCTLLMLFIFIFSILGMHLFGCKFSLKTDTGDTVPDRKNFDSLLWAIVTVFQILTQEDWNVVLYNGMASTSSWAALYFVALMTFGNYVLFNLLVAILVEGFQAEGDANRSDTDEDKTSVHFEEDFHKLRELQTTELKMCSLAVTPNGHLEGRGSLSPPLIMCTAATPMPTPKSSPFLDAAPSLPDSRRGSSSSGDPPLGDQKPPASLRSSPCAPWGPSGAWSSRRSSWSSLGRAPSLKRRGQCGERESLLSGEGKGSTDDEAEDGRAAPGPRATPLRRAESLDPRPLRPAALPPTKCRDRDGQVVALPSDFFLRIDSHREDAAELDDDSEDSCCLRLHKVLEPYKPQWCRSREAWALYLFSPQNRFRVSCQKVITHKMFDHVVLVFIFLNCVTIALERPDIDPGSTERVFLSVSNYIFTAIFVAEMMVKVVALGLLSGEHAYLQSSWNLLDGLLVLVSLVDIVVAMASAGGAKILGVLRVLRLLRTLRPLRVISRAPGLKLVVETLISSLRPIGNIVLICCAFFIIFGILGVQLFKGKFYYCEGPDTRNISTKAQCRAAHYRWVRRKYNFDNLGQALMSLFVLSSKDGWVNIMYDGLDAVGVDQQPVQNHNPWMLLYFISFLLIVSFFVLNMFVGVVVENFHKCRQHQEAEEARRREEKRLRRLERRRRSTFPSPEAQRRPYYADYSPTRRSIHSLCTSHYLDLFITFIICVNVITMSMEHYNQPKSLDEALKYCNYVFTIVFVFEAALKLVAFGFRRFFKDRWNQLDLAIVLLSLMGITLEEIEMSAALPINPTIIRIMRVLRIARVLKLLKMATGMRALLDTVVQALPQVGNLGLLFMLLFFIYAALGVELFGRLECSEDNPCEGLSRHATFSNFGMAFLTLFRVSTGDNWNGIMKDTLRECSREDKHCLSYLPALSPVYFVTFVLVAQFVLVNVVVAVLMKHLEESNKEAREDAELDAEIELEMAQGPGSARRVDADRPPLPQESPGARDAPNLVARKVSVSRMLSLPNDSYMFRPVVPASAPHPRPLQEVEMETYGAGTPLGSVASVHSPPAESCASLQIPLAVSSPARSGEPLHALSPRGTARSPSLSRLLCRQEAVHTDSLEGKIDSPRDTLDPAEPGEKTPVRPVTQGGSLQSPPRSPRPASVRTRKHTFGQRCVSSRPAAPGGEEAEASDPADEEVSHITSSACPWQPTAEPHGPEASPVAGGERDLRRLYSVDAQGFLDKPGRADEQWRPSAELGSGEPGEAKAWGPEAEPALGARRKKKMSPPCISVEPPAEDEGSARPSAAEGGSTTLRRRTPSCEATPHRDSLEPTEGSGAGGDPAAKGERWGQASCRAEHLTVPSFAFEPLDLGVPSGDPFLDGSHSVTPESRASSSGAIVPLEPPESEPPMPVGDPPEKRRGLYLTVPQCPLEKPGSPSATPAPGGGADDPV

In the case of O=C1CN(C(=O)CC(c2ccc(Cl)cc2)c2ccc(Cl)cc2)CCN1 [Compound 3, 4-(3,3-bis(4-chlorophenyl)propanoyl)piperazin-2-one], the “τ recovery from fast inactivation (ms)” value [1] is reported as “*512 ms”, the “τ recovery from slow inactivation (ms)” value [1] is reported as “*903 ms” and the “Fraction of current recovered at 5.1 s interval” value [1] is reported as 0.91. The “Fraction current remaining at −40 mV” value ([1]; at −40 mV) was “*0.40”, the “V1/2 fast inactivation (mV)” value [1, 2] was −64 mV and the “V1/2 slow inactivation (mV)” value [1, 2] was −78 mV. For the same compound, the “Rat SNL Tactile Allodynia (% Antiallodynia)” value (SNL L5/L6 rats; 1 hour after drug treatment) was 51%, the “Rat SNL Tactile Allodynia (% Antiallodynia)” value (SNL L5/L6 rats; 2 hours after drug treatment) was 49% and the “Rat SNL Tactile Allodynia (% Antiallodynia)” value (SNL L5/L6 rats; 4 hours after drug treatment) was 30%. For the same compound, the “Epilepsy 6 Hz (% Protected)” value (male CF1 mice; 0.25 hour) was 0%, the “Epilepsy 6 Hz (% Protected)” value (male CF1 mice; 0.5 hour) was 0% and the “Epilepsy 6 Hz (% Protected)” value (male CF1 mice; 1 hour) was 0%. The “Epilepsy 6 Hz (% Protected)” value (male CF1 mice; 2 hours) was 0%, the “Epilepsy 6 Hz (% Protected)” value (male CF1 mice; 4 hours) was 0% and the “% Impaired” value (mice; 0.25 hr) was 0%. For the same compound, the “% Impaired” value (mice; 0.5 hr) was 0%, the “% Impaired” value (mice; 1 hr) was 0% and the “% Impaired” value (mice; 2 hr) was 0%. The “% Impaired” value (mice; 4 hr) was 0%.
With O=C1CN(C(=O)CC(c2ccccc2)c2ccccc2)CCN1 [Compound 4, 4-(3,3-diphenylpropanoyl)piperazin-2-one] the “τ recovery from slow inactivation” value [1] was 495 ms, the “Fraction of current recovered at 5.1 s interval” value [1] was 0.98 and the “Rat SNL Tactile Allodynia (% Antiallodynia)” value (SNL L5/L6 rats; 1 hour after drug treatment) was 92%. The “Rat SNL tactile allodynia, anti-allodynia (statement)” value (SNL L5/L6 rats; compared to baseline and post-SNL) was “significant antiallodynia”, the “Antiallodynic effects compared to vehicle (FIG. 1)” value (SNL L5/L6 rats; i.p., 3, 10 and 30 mpk, 60 minutes after drug administration, von Frey) was “statistically significant antiallodynic effects” and the “Epilepsy 6 Hz (% Protected)” value (male CF1 mice; 0.25 hour) was 50%. For the same compound, the “Epilepsy 6 Hz (% Protected)” value (male CF1 mice; 0.5 hour) was 88%, the “Epilepsy 6 Hz (% Protected)” value (male CF1 mice; 1 hour) was 13% and the “Epilepsy 6 Hz (% Protected)” value (male CF1 mice; 2 hours) was 25%. For the same compound, the ED50 (male CF1 mice; Mus musculus, 32 mA, mice) was 192 mg/kg, the “% Impaired” value (mice; 0.25 hr) was 0% and the “% Impaired” value (mice; 0.5 hr) was 0%. The “% Impaired” value (mice; 1 hr) was 0%, the “% Impaired” value (mice; 2 hr) was 0% and the “% Impaired” value (mice; 4 hr) was 0%.
